Measurements as given in US8962627B2, “Oxime derivatives and their use as allosteric modulators of metabotropic glutamate receptors” (Prestwick Chemical, Inc., priority 2009, dated 2015).

Legend:
[1] = target: T1, human mGluR4 transiently over-expressed in HEK-293 cells (Homo sapiens, UniProt Q14833); assay: Human mGluR4 positive allosteric modulator evaluation using Ca++ functional assay; format: cell-based; conditions: HEK-293 cells co-transfected with hmGluR4 and chimeric G protein; EC10 glutamate; intracellular calcium (Fluo4AM); read-out: mean EC50 of agonist/positive allosteric modulator activity on mGluR4
T1 construct: expressed in transfected cells; host or cells: HEK-293 cells, transient co-transfection by electroporation
T1 sequence (Q14833 33-912): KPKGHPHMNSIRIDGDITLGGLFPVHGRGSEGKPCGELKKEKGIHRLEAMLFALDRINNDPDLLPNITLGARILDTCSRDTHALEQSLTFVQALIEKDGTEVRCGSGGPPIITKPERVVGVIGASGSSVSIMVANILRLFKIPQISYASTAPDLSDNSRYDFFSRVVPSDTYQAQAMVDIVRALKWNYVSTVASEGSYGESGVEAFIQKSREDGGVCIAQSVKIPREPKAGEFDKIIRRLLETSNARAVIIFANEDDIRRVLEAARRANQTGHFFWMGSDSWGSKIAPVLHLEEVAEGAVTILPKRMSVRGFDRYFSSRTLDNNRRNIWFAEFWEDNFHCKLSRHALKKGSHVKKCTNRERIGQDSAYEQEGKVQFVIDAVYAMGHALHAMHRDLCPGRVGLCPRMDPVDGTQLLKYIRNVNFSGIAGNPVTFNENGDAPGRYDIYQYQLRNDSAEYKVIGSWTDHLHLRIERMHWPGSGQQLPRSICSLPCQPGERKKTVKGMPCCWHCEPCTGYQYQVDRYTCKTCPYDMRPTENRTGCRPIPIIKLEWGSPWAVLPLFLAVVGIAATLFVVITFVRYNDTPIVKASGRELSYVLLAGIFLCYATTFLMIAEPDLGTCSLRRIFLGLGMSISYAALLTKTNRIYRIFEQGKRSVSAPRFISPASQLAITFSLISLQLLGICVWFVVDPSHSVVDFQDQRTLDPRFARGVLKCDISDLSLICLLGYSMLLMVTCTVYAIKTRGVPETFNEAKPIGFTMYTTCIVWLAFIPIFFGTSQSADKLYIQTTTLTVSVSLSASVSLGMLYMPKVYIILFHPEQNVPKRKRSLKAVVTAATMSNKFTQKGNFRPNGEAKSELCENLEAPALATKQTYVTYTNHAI
Method: Human mGluR4 Positive Allosteric Modulator Evaluation Using Ca^++ Functional Assay
Compounds of the present invention were tested successively for their agonist and positive allosteric modulator activities on human mGluR4 transiently over-expressed in HEK-293 cells. They exert agonist activity if, by themselves in absence of the endogenous glutamate, they are able to activate mGluR4; and they exert positive allosteric modulator activity if they increase the action of the endogenous glutamate.
Cell Culture and Transfection
HEK-293 cells were maintained in Modified Eagle's Medium supplemented with 10% Foetal Calf Serum, 1% Penicillin/Streptomycin and 1% non essential amino acids at 37° C./5% CO2.
Cells were co-transfected by electroporation with two DNA plasmids encoding hmGluR4 and a chimeric G protein allowing redirection of the activation signal to intracellular calcium pathway. Cells were plated after transfection onto polyornithine coated, clear bottom, black-walled, 96-well plates and cultured for 24 h.
Calcium Assay EC50 Determination
Receptor activity was detected by changes in intracellular calcium measured using the fluorescent Ca^2+ sensitive dye, Fluo4AM (Molecular Probes).
The day of the assay, medium was aspirated and replaced during 3 hours by medium without serum supplemented with 1% Glutamax, 1% Penicillin/Streptomycin and 1% non essential amino acids. Then, cells were washed with freshly prepared buffer B (HBSS 1×(PAA), Hepes 20 mM, MgSO4-7H2O 1 mM, Na2CO3 3.3 mM, CaCl2-2H2O 1.3 mM, 0.5% BSA, Probenecid 2.5 mM) and loaded at 37° C. in 5% CO2 for 1.5 hours with buffer B containing 1 μM Fluo4AM 0.1 mg/mL Pluronic Acid, 7 μg/mL Glutamate Pyruvate Transaminase and 2 mM sodium pyruvate. Afterwards cells were washed twice with buffer B and 50 μL of this buffer were added to each well. Addition of compounds and intracellular Ca^2+ measurements (excitation 485 nm, emission 525 nm) were performed by the fluorescence microplate reader FlexStation (Molecular Devices).
Agonist and positive allosteric modulator activities of compounds were consecutively evaluated on the same cells plate. Agonist activity was first tested during 60 s with the addition of compound alone on the cells. Then, the cells were stimulated by an EC10 glutamate concentration and fluorescence recorded for additional 60 s. EC10 glutamate concentration is the concentration giving 10% of the maximal glutamate response. Agonist and/or positive allosteric modulator activity(ies) were evaluated in comparison to basal signal evoked by EC10 glutamate alone.
For EC50 determination, a dose-response test was performed using 6 to 9 concentrations of each compound of the invention. Dose-response curves were fitted using the sigmoidal dose-response (variable slope) analysis in GraphPad Prism program (Graph Pad Inc) and EC50 of agonist/positive allosteric modulator activity was calculated. Dose-response experiments were all performed in duplicate, two times independently.

Compound | EC50 [1] [nM] | melting point
ON=c1cc(-c2cc3ccsc3cn2)oc2ccccc12 (mixture of isomers) [Example 69, 2-Thieno[2,3-c]pyridin-5-yl-chromen-4-one oxime] | < 1000 | 243 to 245 °C
COC[C@H]1CCCN1CCOc1ccc2oc(-c3cc4cccn4cn3)cc(=NO)c2c1.Cl [Example 97, 6-[2-((R)-2-methoxymethylpyrrolidin-1-yl)-ethoxy]-2-pyrrolo[1,2-c]pyrimidin-3-yl-chromen-4-one oxime, hydrochloride] | < 1000 | 210 °C (dec.)
ON=c1cc(-c2cc3ccccc3cn2)oc2cc(Br)ccc12 (mixture of isomers) [Example 2, 7-bromo-2-isoquinolin-3-yl-chromen-4-one oxime] | < 5000 | 279 to 283 °C
ON=c1cc(-c2cc3sccc3cn2)oc2ccccc12 [Example 70, 2-Thieno[3,2-c]pyridin-6-yl-chromen-4-one oxime] | < 1000 | 272 to 275 °C
ON=c1cc(-c2cc3cccn3cn2)oc2ccc(OCCc3ccccc3)cc12 [Example 146, 6-Phenethyloxy-2-pyrrolo[1,2-c]pyrimidin-3-yl-chromen-4-one oxime] | < 1000 | 210 °C
ON=c1cc(-c2cc3ccccc3cn2)oc2cc(/C=C/c3ccccc3)ccc12 (mixture of isomers) [Example 21, 2-isoquinolin-3-yl-7-((E)-styryl)-chromen-4-one oxime] | < 5000 | 273 to 276 °C
ON=c1cc(-c2cc3cccn3cn2)oc2ccc(OCCCOc3cccnc3)cc12 [Example 149, 6-[3-(Pyridin-3-yloxy)-propoxy]-2-pyrrolo[1,2-c]pyrimidin-3-yl-chromen-4-one oxime] | < 1000 | 202 to 205 °C
COCCOc1ccc2c(=NO)cc(-c3cc4ccccc4cn3)oc2c1 (mixture of isomers) [Example 57, 2-isoquinolin-3-yl-7-(2-methoxy-ethoxy)-chromes-4-one oxime] | < 5000 | 223 to 225 °C
Cc1ccc2oc(-c3cc4ccccc4cn3)cc(=NO)c2c1 (mixture of isomers) [Example 5, 2-isoquinolin-3-yl-6-methyl-chromen-4-one oxime] | < 1000 | 260 to 264 °C
Cl.ON=c1cc(-c2cc3cccn3cn2)oc2ccc(OCCN3CCCC3)cc12 [Example 87, 6-(2-Pyrrolidin-1-yl-ethoxy)-2-pyrrolo[1,2-c]pyrimidin-3-yl-chromen-4-one oxime, hydrochloride] | < 5000 | > 260 °C (dec.)
Cl.ON=c1cc(-c2cc3cccn3cn2)oc2ccc(OCCCc3ccncc3)cc12 [Example 159, 6-(3-Pyridin-4-yl-propoxy)-2-pyrrolo[1,2-c]pyrimidin-3-yl-chromen-4-one oxime, hydrochloride] | < 1000 | 210 to 215 °C
COc1cccc2oc(-c3cc4cccn4cn3)cc(=NO)c12 [Example 139, 5-Methoxy-2-pyrrolo[1,2-c]pyrimidin-3-yl-chromen-4-one oxime] | < 1000 | 240 to 243 °C
Cl.ON=c1cc(-c2cc3sccc3cn2)oc2ccc(OCCCc3cccnc3)cc12 [Example 135, 6-(3-Pyridin-3-yl-propoxy)-2-thieno[3,2-c]pyridin-6-yl-chromen-4-one oxime, hydrochloride] | < 1000 | 252 to 254 °C
Cl.ON=c1cc(-c2cc3cccn3cn2)oc2ccc(CNCc3ccc(F)cc3)cc12 [Example 144, 6-[(4-Fluoro-benzylamino)-methyl]-2-pyrrolo[1,2-c]pyrimidin-3-yl-chromen-4-one oxime hydrochloride] | < 5000 | > 210 °C (dec.)
Cl.Cl.ON=c1cc(-c2cc3cccn3cn2)oc2ccc(OCCN3CCC(N4CCCC4)CC3)cc12 [Example 118, 6-[2-(4-pyrrolidin-1-yl-piperidin-1-yl)-ethoxy]-2-pyrrolo[1,2-c]pyrimidin-3-yl-chromen-4-one oxime, dihydrochloride] | < 1000 | > 210 °C (dec.)
ON=c1cc(-c2cn3cccc3cn2)oc2ccccc12 [Example 91, 2-Pyrrolo[1,2-a]pyrazin-3-yl-chromen-4-one oxime] | < 1000 | > 276 °C
ON=c1cc(-c2cc3cccn3cn2)oc2ccc(OCCOc3cccnc3)cc12 [Example 148, 6-[2-(Pyridin-3-yloxy)-ethoxy]-2-pyrrolo[1,2-c]pyrimidin-3-yl-chromen-4-one oxime] | < 1000 | 170 to 175 °C
Cl.O=C(NCCN1CCOCC1)c1ccc2oc(-c3cc4cccn4cn3)cc(=NO)c2c1 [Example 115, 4-(hydroxyimino)-2-pyrrolo[1,2-c]pyrimidin-3-yl-4H-chromene-6-carboxylic acid (2-morpholin-4-yl-ethyl)-amide, hydrochloride] | < 1000 | 230 to 235 °C
Cl.ON=c1cc(-c2cc3sccc3cn2)oc2ccc(OCCn3ccnc3)cc12 [Example 129, 6-(2-imidazol-1-yl-ethoxy)2-thieno[3,2-c]pyridin-6-yl-chromen-4-one oxime, hydrochloride] | < 1000 | 218 to 220 °C
ON=c1cc(-c2cc3ccccc3cn2)oc2ccccc12 (mixture of isomers) [Example 1, 2-isoquinolin-3-yl-chromen-4-one oxime] | < 1000 | 247 to 249 °C
COC1CCCN(CCOc2ccc3oc(-c4cc5cccn5cn4)cc(=NO)c3c2)C1.Cl (stereo not shown) [Example 108, 6-[2-(3-methoxy-piperidin-1-yl)-ethoxy]-2-pyrrolo[1,2-c]pyrimidin-3-yl-chromen-4-one oxime, hydrochloride] | < 1000 | 178 to 184 °C
COCCOCC#Cc1ccc2c(=NO)cc(-c3cc4ccccc4cn3)oc2c1 (mixture of isomers) [Example 54, 2-Isoquinolin-3-yl-7-[3-(2-methoxy-ethoxy)-prop-1-ynyl]-chromen-4-one oxime] | < 5000 | 158 to 160 °C
Cc1ccc2cnc(-c3cc(=NO)c4ccccc4o3)cc2c1 (mixture of isomers) [Example 15, 2-(6-methyl-isoquinolin-3-yl)-chromen-4-one oxime] | < 5000 | 245 to 247 °C
CN1CCN(CCOc2ccc3oc(-c4cc5cccn5cn4)cc(=NO)c3c2)CC1.Cl.Cl [Example 93, 6-[2-(4-methyl-piperazin-1-yl)-ethoxy]-2-pyrrolo[1,2-c]pyrimidin-3-yl-chromen-4-one oxime, dihydrochloride] | < 5000 | > 230 °C (dec.)
CC1CN(CCOc2ccc3oc(-c4cc5sccc5cn4)cc(=NO)c3c2)CC(C)O1.Cl (stereo not shown) [Example 132, 6-[2-(2,6-Dimethyl-morpholin-4-yl)-ethoxy]-2-thieno[3,2-c]pyridin-6-yl-chromen-4-one oxime, hydrochloride] | < 1000 | 222 to 225 °C
ON=c1cc(-c2cn3cccc3cn2)oc2ccc(OCCc3ccc(F)cc3)cc12 [Example 126, 6-[2-(4-Fluoro-phenyl)-ethoxy]-2-pyrrolo[1,2-a]pyrazin-3-yl-chromen-4-one oxime] | < 1000 | 248 to 250 °C
